Measurements as given in paper PMC9457773 (Molecules, 2022).
Read-outs that look alike come from different tables or passages of the source.

Tests used:
[1] = rat; for Stability, Bench-Top: measured concentration: 4 h; for Stability, Autosampler: measured concentration: 12 h; for Stability, Long-Term: measured concentration: 30 days
Method: (§1) A 5 μL aliquot of the mixed working solution was added to 45 μL of blank plasma to prepare the calibration standards.
(§2) The selectivity of the method was assessed by comparing the chromatograms of six independent blank rat plasma samples, simulated plasma samples in which blank rat plasma samples were spiked with working solution at a lower limit of quantitation (LLOQ) and IS, and actual plasma samples collected from rats. […] Different concentrations of the QC and LLOQ samples, with six replicates at each concentration, were used to evaluate precision and accuracy, and inter-batch precision and accuracy were evaluated by measurements for three consecutive days. The precision was expressed as the coefficient of variation (CV%), and the accuracy was expressed as the relative error (RE%). The extraction recovery was evaluated by comparing the peak areas of blank plasma spiked with working solution pre-extraction and blank plasma spiked with working solution post-extraction. The matrix effect was evaluated by the ratio of the peak area of the analyte in the plasma to the peak area of the analyte in solution at three concentrations of the QC samples. […] Three concentrations of the QC samples, with six replicates at each concentration level, were used to examine the stability of the three analytes at room temperature for 4 h, in the autosampler for 12 h, at −80 °C for 30 days, and freeze–thaw three times.

[2] = literature value, Introduction; cited from earlier work
[3] = literature value, Introduction, cited from earlier work
[4] = literature statement in words, Introduction, cited from earlier work
[5] = Pharmacokinetic and drug–drug interaction study in rats (plasma, UPLC–MS/MS); conditions: for AUC(0-inf): AUCinf; for AUC(0-t): AUClast; for CL/F: CLz/F; for Tmax: median (range); for Vd/F: Vz/F; for half-life: t1/2z
Method: First, 50 μL of the plasma sample was added to 5 μL of the mixture IS working solution and 500 μL of the extraction reagent (methyl tert-butyl ether and ethyl acetate, 1:4) vortex-mixed for 3 min and then centrifuged at 12,000 rpm for 10 min. Next, 400 μL of supernatant was transferred into a new centrifuge tube, which was blown dry under a stream of nitrogen, and the residue was re-solubilized with 150 μL of 50% acetonitrile–water.
The concentrations of analytes were determined by UPLC–MS/MS, which consisted of an LC-30A ultra-performance liquid chromatography (Shimadzu, Japan), and Sciex Triple Quad 5500 tandem triple quadrupole mass spectrometer (Applied Biosystems Sciex, Framingham, MA, USA). The XSelect HSS T3 column (2.1 mm × 100 mm, 2.5 μm, Waters, Milford, MA, USA) was used for chromatographic separation. Phase A (0.1% formic acid in ultrapure water containing 5 mM ammonium acetate) and phase B (acetonitrile) were used as the mobile phases for gradient elution at 0.35 mL/min.
The experimental animals were randomly divided into five groups (n = 6 per group). […] Approximately 0.25 mL of blood was collected from the orbital venous plexus of rats in pre-heparinized centrifuge tubes. […] Blood samples were centrifuged at 3500 rpm for 10 min, and the plasma was transferred to new centrifuge tubes and then stored at −80 °C.
The Cmax and Tmax (time to maximum plasma concentration) were read directly from the drug concentrations. The other pharmacokinetic parameters were analyzed using a non-compartmental analysis with Phoenix WinNonLin 8.2 software (Pharsight, Mountain View, Certara, CA, USA).

[6] = Stability of QC samples in rat plasma under various storage conditions; conditions: for Stability, Autosampler: measured concentration / Stability, Freeze-Thaw: measured concentration / Stability, Bench-Top: measured concentration / Stability, Long-Term: measured concentration: rat plasma QC, n = 6; for Stability, Autosampler: measured concentration: autosampler for 12 h; for Stability, Freeze-Thaw: measured concentration: freeze–thaw three times; for Stability, Bench-Top: measured concentration: room temperature for 4 h; for Stability, Long-Term: measured concentration: −80 °C for 30 days
Method: as §1, §2

[7] = Sprague Dawley, rat, plasma, po, 1.2 mg/kg, lenvatinib in rat plasma, lenvatinib 1.2 mg/kg oral co-administered with canagliflozin 10 mg/kg (VLEN+CA), n = 6, mean ± SD
[8] = Sprague Dawley, rat, plasma, po, 1.2 mg/kg, lenvatinib in rat plasma, oral single dose lenvatinib 1.2 mg/kg alone (IILEN), n = 6, mean ± SD
[9] = lenvatinib (1.2 mg/kg) in the presence of canagliflozin (10 mg/kg) compared to lenvatinib alone, rats
[10] = lenvatinib in rat plasma, oral single dose lenvatinib 1.2 mg/kg alone (IILEN), n = 6, mean ± SD
[11] = Sprague Dawley, rat, plasma, po, 100 mg/kg, sorafenib in rat plasma, oral single dose sorafenib 100 mg/kg alone (ISOR), n = 6, mean ± SD
[12] = Sprague Dawley, rat, plasma, po, 100 mg/kg, sorafenib in rat plasma, sorafenib 100 mg/kg oral co-administered with canagliflozin 10 mg/kg (IVSOR+CA), n = 6, mean ± SD

Compound: COc1cc2nccc(Oc3ccc(NC(=O)NC4CC4)c(Cl)c3)c2cc1C(N)=O [lenvatinib, Lenvatinib]
- Stability, Freeze-Thaw: measured concentration ([1]; 0.5 ng/mL): 0.53 ± 0.03 ng/mL
- Stability, Freeze-Thaw: measured concentration ([1]; 150 ng/mL): 157.33 ± 11.02 ng/mL
- Stability, Freeze-Thaw: measured concentration ([1]; 800 ng/mL): 725.83 ± 18.06 ng/mL
- Stability, Bench-Top: measured concentration ([1]; 0.5 ng/mL): 0.54 ± 0.03 ng/mL
- Stability, Bench-Top: measured concentration ([1]; 150 ng/mL): 156.67 ± 7.42 ng/mL
- Stability, Bench-Top: measured concentration ([1]; 800 ng/mL): 794.00 ± 18.24 ng/mL
- Stability, Autosampler: measured concentration ([1]; 0.5 ng/mL): 0.53 ± 0.04 ng/mL
- Stability, Autosampler: measured concentration ([1]; 150 ng/mL): 162.67 ± 7.42 ng/mL
- Stability, Autosampler: measured concentration ([1]; 800 ng/mL): 819.50 ± 30.36 ng/mL
- Stability, Long-Term: measured concentration ([1]; 0.5 ng/mL): 0.47 ± 0.03 ng/mL
- Stability, Long-Term: measured concentration ([1]; 150 ng/mL): 157.00 ± 12.63 ng/mL
- Stability, Long-Term: measured concentration ([1]; 800 ng/mL): 714.00 ± 24.44 ng/mL
- plasma protein binding rate [2]: approximately 98%
- half-life [3]: 28 h
- solubility [4]: low
- AUC(0-inf) [5, 7]: 7280 ± 1170 ng·h/mL
- AUC(0-t) [5, 7]: 7280 ± 1170 ng·h/mL
- CL/F [5, 7]: 2.83 mL/min/kg
- CL/F [5, 8]: 3.67 mL/min/kg
- Cmax [5, 7]: 985 ± 162 ng/mL
- Cmax [5, 8]: 721 ± 144 ng/mL
- Tmax ([5]; Sprague Dawley, rat, plasma, po, 1.2 mg/kg, Tmax, lenvatinib in rat plasma, oral single dose lenvatinib 1.2 mg/kg alone (IILEN), n = 6): 1.75 h
- Vd/F [5, 7]: 1.56 ± 0.29 L/kg
- Vd/F [5, 8]: 3.31 ± 1.51 L/kg
- half-life [5, 7]: 6.49 ± 1.04 h
- half-life [5, 8]: 10.5 ± 4.53 h
- decrease of CLz/F [5, 9]: 22.7%
- decrease of Vz/F [5, 9]: 52.9%
- decrease of t1/2 [5, 9]: 38%
- increase of AUCinf [5, 9]: 28.9%
- increase of AUClast [5, 9]: 28.9%
- increase of Cmax [5, 9]: 36.2%
- Tmax ([5]; lenvatinib in rat plasma, lenvatinib 1.2 mg/kg oral co-administered with canagliflozin 10 mg/kg (VLEN+CA), n = 6): 1.50 (0.88–1.63) h
- AUCinf [5, 10]: 5653 ± 1299 ng·h/mL
- AUClast [5, 10]: 5640 ± 1292 ng·h/mL
- increase of AUC ([5]; lenvatinib in the presence of canagliflozin, rats, abstract, AUC not specified as last or inf): 28.9%

Compound: CNC(=O)c1cc(Oc2ccc(NC(=O)Nc3ccc(Cl)c(C(F)(F)F)c3)cc2)ccn1 [sorafenib, Sorafenib]
- plasma protein binding rate [2]: 99.5%
- time to peak blood concentration ([3]; after oral administration): approximately 3 h
- solubility [4]: poor
- permeability ([4]; membrane permeability): high
- stability during the different processing and storage conditions ([6]; rat plasma QC samples, room temperature 4 h, autosampler 12 h, −80 °C 30 days, three freeze–thaw cycles): stable
- Stability, Autosampler: measured concentration ([6]; nominal 10 ng/mL): 11.13 ± 0.24 ng/mL
- Stability, Freeze-Thaw: measured concentration ([6]; nominal 10 ng/mL): 10.55 ± 0.43 ng/mL
- Stability, Bench-Top: measured concentration ([6]; nominal 10 ng/mL): 10.97 ± 0.29 ng/mL
- Stability, Long-Term: measured concentration ([6]; nominal 10 ng/mL): 10.51 ± 0.43 ng/mL
- Stability, Autosampler: measured concentration ([6]; nominal 1500 ng/mL): 1540.00 ± 95.71 ng/mL
- Stability, Freeze-Thaw: measured concentration ([6]; nominal 1500 ng/mL): 1531.67 ± 117.88 ng/mL
- Stability, Bench-Top: measured concentration ([6]; nominal 1500 ng/mL): 1551.67 ± 84.00 ng/mL
- Stability, Long-Term: measured concentration ([6]; nominal 1500 ng/mL): 1565.00 ± 123.25 ng/mL
- Stability, Autosampler: measured concentration ([6]; nominal 3750 ng/mL): 3961.67 ± 102.26 ng/mL
- Stability, Freeze-Thaw: measured concentration ([6]; nominal 3750 ng/mL): 3698.33 ± 72.78 ng/mL
- Stability, Bench-Top: measured concentration ([6]; nominal 3750 ng/mL): 3948.33 ± 99.88 ng/mL
- Stability, Long-Term: measured concentration ([6]; nominal 3750 ng/mL): 3583.33 ± 67.43 ng/mL
- AUC(0-inf) [5, 11]: 40300 ng·h/mL
- AUC(0-inf) [5, 12]: 41300 ng·h/mL
- AUC(0-t) [5, 11]: 40000 ng·h/mL
- AUC(0-t) [5, 12]: 41200 ng·h/mL
- CL/F [5, 11]: 47.7 mL/min/kg
- CL/F [5, 12]: 42 mL/min/kg
- Cmax [5, 11]: 1920 ± 298 ng/mL
- Cmax [5, 12]: 2200 ± 535 ng/mL
- Vd/F [5, 11]: 49 ± 18.8 L/kg
- Vd/F [5, 12]: 38.3 ± 10.1 L/kg
- half-life [5, 11]: 12.3 ± 2.23 h
- Tmax ([5]; sorafenib in rat plasma, oral single dose sorafenib 100 mg/kg alone (ISOR), n = 6): 8.00 (7.00–8.00) h
- t1/2z ([5]; sorafenib in rat plasma, sorafenib 100 mg/kg oral co-administered with canagliflozin 10 mg/kg (IVSOR+CA), n = 6, mean ± SD): 10.47 ± 0.94 h
